Laboratory results published in publication PMC8191317, “Structural and functional analysis of lignostilbene dioxygenases from Sphingobium sp. SYK-6” (The Journal of Biological Chemistry, 2021).

Legend:
Format in all cases: biochemical
LSD6 = target: T1, LSD6 (Sphingomonas paucimobilis, UniProt Q8RQW2); test: oxygraph O2 consumption, E. coli lysate; settings: 100 μM substrate
T1 construct: gene lsdA; pET41b, E. coli BL21(DE3) lysate
T1 sequence (Q8RQW2 1-491): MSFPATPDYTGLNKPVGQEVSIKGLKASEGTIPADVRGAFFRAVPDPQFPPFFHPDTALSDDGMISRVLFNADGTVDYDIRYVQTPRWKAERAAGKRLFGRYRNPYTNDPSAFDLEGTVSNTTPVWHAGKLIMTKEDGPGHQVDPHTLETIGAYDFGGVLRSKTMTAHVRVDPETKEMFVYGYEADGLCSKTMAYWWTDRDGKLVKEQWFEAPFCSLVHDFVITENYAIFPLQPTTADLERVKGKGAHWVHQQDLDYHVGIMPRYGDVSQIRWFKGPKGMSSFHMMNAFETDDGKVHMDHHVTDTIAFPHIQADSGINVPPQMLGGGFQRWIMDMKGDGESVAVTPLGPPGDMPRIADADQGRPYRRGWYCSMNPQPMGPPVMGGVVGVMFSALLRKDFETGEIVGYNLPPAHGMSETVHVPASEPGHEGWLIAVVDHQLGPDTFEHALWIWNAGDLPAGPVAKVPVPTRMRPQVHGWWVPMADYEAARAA

LSD2 = target: T2, LSD2 (Sphingobium sp. SYK-6, UniProt G2IQG5); test: oxygraph O2 consumption, E. coli lysate; settings: 100 μM substrate
T2 construct: gene SLG_36640; pET41b, E. coli BL21(DE3) lysate, co-produced with GroEL/GroES
T2 sequence (G2IQG5 1-490): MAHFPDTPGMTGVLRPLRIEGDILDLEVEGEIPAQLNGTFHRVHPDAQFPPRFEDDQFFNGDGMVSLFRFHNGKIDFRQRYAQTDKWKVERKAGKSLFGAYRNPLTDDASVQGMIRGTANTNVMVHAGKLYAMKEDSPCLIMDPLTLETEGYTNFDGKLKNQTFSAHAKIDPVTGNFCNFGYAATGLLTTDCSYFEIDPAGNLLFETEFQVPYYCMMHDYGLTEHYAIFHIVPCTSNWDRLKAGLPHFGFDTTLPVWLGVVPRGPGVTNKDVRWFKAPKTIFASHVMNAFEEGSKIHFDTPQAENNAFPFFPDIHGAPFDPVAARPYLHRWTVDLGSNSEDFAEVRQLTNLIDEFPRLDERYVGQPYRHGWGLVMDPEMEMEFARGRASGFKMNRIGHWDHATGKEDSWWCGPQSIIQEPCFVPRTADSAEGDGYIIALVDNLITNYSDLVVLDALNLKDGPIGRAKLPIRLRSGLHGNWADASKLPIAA

LSD7 = target: T3, LSD7 (Sphingobium sp. SYK-6, UniProt G2INY0); test: oxygraph O2 consumption, E. coli lysate; settings: 100 μM substrate
T3 construct: gene SLG_09440; pET41b, E. coli BL21(DE3) lysate
T3 sequence (G2INY0 1-483): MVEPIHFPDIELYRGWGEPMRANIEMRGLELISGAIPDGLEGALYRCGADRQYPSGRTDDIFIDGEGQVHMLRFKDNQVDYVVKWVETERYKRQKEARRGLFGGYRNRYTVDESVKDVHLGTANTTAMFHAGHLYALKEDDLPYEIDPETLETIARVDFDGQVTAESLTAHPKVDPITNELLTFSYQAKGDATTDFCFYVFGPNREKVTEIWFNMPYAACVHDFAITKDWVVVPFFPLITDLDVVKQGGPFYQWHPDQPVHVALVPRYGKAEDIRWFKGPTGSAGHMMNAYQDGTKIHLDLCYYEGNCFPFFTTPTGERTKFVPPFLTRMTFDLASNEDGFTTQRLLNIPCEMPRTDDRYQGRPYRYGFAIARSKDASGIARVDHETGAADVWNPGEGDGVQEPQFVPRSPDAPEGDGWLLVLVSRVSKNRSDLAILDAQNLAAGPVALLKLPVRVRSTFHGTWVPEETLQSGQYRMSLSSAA

LSD3 = target: T4, LSD3 (Sphingobium sp. SYK-6, UniProt G2IPX7); test: oxygraph O2 consumption, E. coli lysate; settings: 100 μM substrate
T4 construct: gene SLG_11300; pET41b, E. coli BL21(DE3) lysate
T4 sequence (G2IPX7 1-491): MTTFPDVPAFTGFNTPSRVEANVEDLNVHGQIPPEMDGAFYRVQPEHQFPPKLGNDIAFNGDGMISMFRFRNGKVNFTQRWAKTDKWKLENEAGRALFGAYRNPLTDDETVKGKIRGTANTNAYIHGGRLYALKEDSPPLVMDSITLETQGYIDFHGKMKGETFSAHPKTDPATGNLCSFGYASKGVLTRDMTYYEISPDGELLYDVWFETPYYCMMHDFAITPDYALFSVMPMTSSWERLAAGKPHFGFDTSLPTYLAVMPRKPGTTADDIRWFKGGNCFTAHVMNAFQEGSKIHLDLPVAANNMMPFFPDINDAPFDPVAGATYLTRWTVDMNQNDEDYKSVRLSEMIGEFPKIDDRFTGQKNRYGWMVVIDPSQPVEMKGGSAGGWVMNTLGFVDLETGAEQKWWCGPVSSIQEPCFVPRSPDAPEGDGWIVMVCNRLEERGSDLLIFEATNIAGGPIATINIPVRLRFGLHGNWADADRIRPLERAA

LSD5 = target: T5, LSD5 (Sphingobium sp. SYK-6, UniProt G2IKS0); test: oxygraph O2 consumption, E. coli lysate; settings: 100 μM substrate
T5 construct: gene SLG_27970; pET41b, E. coli BL21(DE3) lysate
T5 sequence (G2IKS0 1-492): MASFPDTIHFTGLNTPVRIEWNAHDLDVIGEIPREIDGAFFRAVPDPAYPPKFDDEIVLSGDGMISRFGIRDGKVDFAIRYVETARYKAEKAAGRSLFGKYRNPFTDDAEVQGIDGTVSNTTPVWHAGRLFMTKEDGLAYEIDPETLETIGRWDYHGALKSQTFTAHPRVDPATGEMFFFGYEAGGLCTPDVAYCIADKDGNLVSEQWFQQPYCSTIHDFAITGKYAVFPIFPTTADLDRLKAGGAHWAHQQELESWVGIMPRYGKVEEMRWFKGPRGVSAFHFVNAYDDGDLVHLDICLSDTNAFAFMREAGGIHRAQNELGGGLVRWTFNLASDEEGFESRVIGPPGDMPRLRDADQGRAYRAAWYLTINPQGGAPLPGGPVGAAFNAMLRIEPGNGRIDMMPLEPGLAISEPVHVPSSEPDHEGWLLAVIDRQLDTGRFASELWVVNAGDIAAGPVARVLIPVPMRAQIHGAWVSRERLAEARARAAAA

LSD1 = target: T6, LSD1 (Sphingobium sp. SYK-6, UniProt G2IR63); test: oxygraph O2 consumption, E. coli lysate; settings: 100 μM substrate
T6 construct: gene SLG_37540; pET41b, E. coli BL21(DE3) lysate, co-produced with GroEL/GroES
T6 sequence (G2IR63 1-486): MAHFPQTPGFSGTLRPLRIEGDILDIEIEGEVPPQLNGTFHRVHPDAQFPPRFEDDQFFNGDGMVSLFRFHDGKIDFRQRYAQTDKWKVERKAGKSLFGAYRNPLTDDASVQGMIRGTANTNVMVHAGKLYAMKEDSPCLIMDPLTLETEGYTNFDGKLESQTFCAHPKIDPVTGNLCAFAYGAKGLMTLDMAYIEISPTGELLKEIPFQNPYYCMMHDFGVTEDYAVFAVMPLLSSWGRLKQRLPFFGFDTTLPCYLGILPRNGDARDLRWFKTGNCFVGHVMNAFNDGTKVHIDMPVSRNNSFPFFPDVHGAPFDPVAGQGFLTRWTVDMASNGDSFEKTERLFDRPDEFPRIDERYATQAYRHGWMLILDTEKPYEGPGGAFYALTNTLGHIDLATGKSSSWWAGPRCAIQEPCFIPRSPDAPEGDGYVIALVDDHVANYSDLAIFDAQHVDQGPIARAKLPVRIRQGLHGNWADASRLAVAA

LSD4 = target: T7, LSD4 (Sphingobium sp. SYK-6, UniProt Z9AM74RXJ0); test: O2 electrode (oxygraph) inhibition kinetics; settings: read-out: Kic
T7 construct: residues 2-489 modelled; Fe2+ enzyme, Co-LSD4 for complexes
T7 sequence (Z9AM74RXJ0 1-489): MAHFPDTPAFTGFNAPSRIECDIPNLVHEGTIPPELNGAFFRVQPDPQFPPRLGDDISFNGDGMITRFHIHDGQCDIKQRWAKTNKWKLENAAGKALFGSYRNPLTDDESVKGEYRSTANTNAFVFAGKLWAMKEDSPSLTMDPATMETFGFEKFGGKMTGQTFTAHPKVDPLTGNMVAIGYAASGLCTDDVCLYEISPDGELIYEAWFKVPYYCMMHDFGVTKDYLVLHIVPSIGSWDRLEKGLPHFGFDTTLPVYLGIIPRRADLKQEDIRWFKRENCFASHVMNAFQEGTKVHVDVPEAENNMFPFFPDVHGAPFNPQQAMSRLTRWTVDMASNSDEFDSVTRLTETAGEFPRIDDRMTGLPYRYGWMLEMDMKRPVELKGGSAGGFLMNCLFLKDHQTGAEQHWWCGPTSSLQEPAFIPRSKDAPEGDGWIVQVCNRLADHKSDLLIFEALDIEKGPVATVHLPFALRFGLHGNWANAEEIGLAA

**Q.** What does the source list for `COc1cc(/C=C/c2ccc(O)c(OC)c2)ccc1O` [compound 2, lignostilbene]?
**A.** relative activity (LSD6): cell lysates containing LSD1, LSD5, LSD6, or LSD7 preferentially cleaved lignostilbene over DCA-S; relative activity (LSD2): The seven soluble enzymes all cleaved lignostilbene; relative activity (LSD7): cell lysates containing LSD1, LSD5, LSD6, or LSD7 preferentially cleaved lignostilbene over DCA-S; relative activity (LSD3): The seven soluble enzymes all cleaved lignostilbene; relative activity (LSD5): cell lysates containing LSD1, LSD5, LSD6, or LSD7 preferentially cleaved lignostilbene over DCA-S; relative activity (LSD1): cell lysates containing LSD1, LSD5, LSD6, or LSD7 preferentially cleaved lignostilbene over DCA-S

**Q.** For `COc1cc(C=O)ccc1O` [vanillin], which Ki (LSD4) is on record?
**A.** 30 ± 8 µM
